The record followed here is PubChem BioAssay (NCI).

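Protocol summary: plate cells (96-well), add compound at 5 concentrations, incubate 48 h, interpolate endpoints linearly. Here, GI50 denotes the concentration required for 50% inhibition of growth. TGI marks complete inhibition of growth.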

Among the test systems are BT-549 breast; HCT-116 colon; MDA-MB-231 breast; UACC-62 melanoma; UACC-257 melanoma; HS 578T breast; SNB-19 CNS; HL-60(TB) leukemia; SK-MEL-28 melanoma; CCRF-CEM leukemia.
Test in all cases: NCI anticancer screen, dose series, 48 h

Regarding `COc1ccc(Cn2c(N)c(S(=O)(=O)c3ccc(Cl)cc3)c3nc(C#N)c(C#N)nc32)cc1`, the GI50 is 34.3 µM in the assay with BT-549 breast; more than 50 µM with HCT-116 colon; 3.1 µM with MDA-MB-231 breast; 4.36 µM in the assay with UACC-62 melanoma; more than 50 µM in the assay with UACC-257 melanoma; 14.6 µM in the assay with HS 578T breast. The GI50 in the assay on SNB-19 CNS was 18 µM; in the assay on HL-60(TB) leukemia, more than 50 µM; with SK-MEL-28 melanoma, more than 50 µM. The TGI is more than 50 µM in the assay with BT-549 breast; more than 50 µM with HCT-116 colon; 20.9 µM in the assay with MDA-MB-231 breast; 17.8 µM with UACC-62 melanoma; more than 50 µM in the assay on UACC-257 melanoma; more than 50 µM in the assay with HS 578T breast. For the same molecule, the TGI in the assay with SNB-19 CNS, in the assay with HL-60(TB) leukemia and in the assay on SK-MEL-28 melanoma was more than 50 µM in each case.

As to `CC1(C)N=C(N)N=C(N)N1c1ccc(CCCCc2ccc(Cl)c(S(=O)(=O)F)c2)c(Cl)c1`, the GI50 was 1.55 µM with BT-549 breast; 0.31 µM in the assay on HCT-116 colon; 4.03 µM in the assay on MDA-MB-231 breast; 0.372 µM in the assay with UACC-62 melanoma; 3.78 µM in the assay with UACC-257 melanoma; 0.168 µM with CCRF-CEM leukemia. The GI50 in the assay on HS 578T breast is 9.71 µM; in the assay on SNB-19 CNS, 3.07 µM; in the assay with HL-60(TB) leukemia, 0.38 µM; in the assay with SK-MEL-28 melanoma, 1.96 µM. For the same molecule, the TGI with BT-549 breast was 12.5 µM; in the assay on HCT-116 colon, more than 39.1 µM; in the assay on MDA-MB-231 breast it was 20.6 µM; in the assay on UACC-62 melanoma, more than 47.9 µM; in the assay on UACC-257 melanoma, 18.4 µM; with CCRF-CEM leukemia, 8.65 µM. Moreover, the TGI in the assay on HS 578T breast is 34.2 µM; in the assay with SNB-19 CNS, 20.6 µM; with HL-60(TB) leukemia, 4.1 µM; with SK-MEL-28 melanoma it was 16.5 µM.

As to `COC(=O)c1cc2c(s1)-c1nccc3c1c(nc1ccccc13)C2=O`, the GI50 with BT-549 breast was more than 100 µM; in the assay on HCT-116 colon, more than 100 µM; in the assay with MDA-MB-231 breast, 28.6 µM; with UACC-62 melanoma it was more than 100 µM; in the assay on UACC-257 melanoma, 32 µM; with CCRF-CEM leukemia, more than 100 µM. Further, the GI50 was 28.2 µM in the assay with HS 578T breast, more than 100 µM with SNB-19 CNS, 12.3 µM in the assay with HL-60(TB) leukemia and more than 100 µM in the assay on SK-MEL-28 melanoma. For the same molecule, the TGI with BT-549 breast, in the assay with HCT-116 colon, in the assay with MDA-MB-231 breast, in the assay on UACC-62 melanoma, with UACC-257 melanoma and with CCRF-CEM leukemia was more than 100 µM throughout. Moreover, the TGI in the assay on HS 578T breast, in the assay with SNB-19 CNS, with HL-60(TB) leukemia and in the assay with SK-MEL-28 melanoma was more than 100 µM throughout.

Turning to `COc1ccc(-c2cc(/C=C/C(=O)c3ccc(OC)c(OC)c3)[nH]n2)cc1`, the GI50 was 1.68 µM in the assay on BT-549 breast; 1.01 µM with HCT-116 colon; 2 µM with MDA-MB-231 breast; 1.65 µM with UACC-62 melanoma; 1.73 µM in the assay on UACC-257 melanoma; 1.34 µM in the assay with CCRF-CEM leukemia. Moreover, the GI50 in the assay with HS 578T breast is 3.38 µM; in the assay on SNB-19 CNS it was 1.88 µM; with HL-60(TB) leukemia, 2.18 µM; in the assay on SK-MEL-28 melanoma it was 1.65 µM. Also, the TGI was found to be 3.53 µM in the assay on BT-549 breast; 2.48 µM in the assay on HCT-116 colon; 6.63 µM with MDA-MB-231 breast; 3.35 µM with UACC-62 melanoma; 3.65 µM in the assay with UACC-257 melanoma; 4.14 µM in the assay on CCRF-CEM leukemia. The TGI is 29 µM in the assay on HS 578T breast, 5.28 µM in the assay with SNB-19 CNS, 6.4 µM with HL-60(TB) leukemia and 3.07 µM in the assay with SK-MEL-28 melanoma.

As for `COc1cc2c3c(c1OC)-c1cc4c(cc1CC3(C#N)N(C(=O)c1ccccc1)CC2)OCO4` (stereo not drawn), the TGI was more than 100 µM in the assay with BT-549 breast; more than 87.2 µM with HCT-116 colon; more than 100 µM with MDA-MB-231 breast; 43.2 µM with UACC-62 melanoma; more than 100 µM in the assay on UACC-257 melanoma; more than 100 µM in the assay on CCRF-CEM leukemia. Also, the TGI in the assay on HS 578T breast was 82 µM; with SNB-19 CNS it was 46 µM; with HL-60(TB) leukemia, more than 100 µM; in the assay with SK-MEL-28 melanoma, more than 100 µM.

Regarding `COC12C(COC(N)=O)C3=C(C(=O)C(C)=C(N)C3=O)N1CC1C2N1C` (stereo not drawn), the TGI stood at 28.3 µM in the assay on BT-549 breast; 32.1 µM in the assay on HCT-116 colon; 115 µM in the assay on MDA-MB-231 breast; 11.1 µM in the assay with UACC-62 melanoma; 35.6 µM in the assay on UACC-257 melanoma; 51.7 µM in the assay with CCRF-CEM leukemia. The TGI worked out at 75.7 µM in the assay on HS 578T breast, 62.5 µM with SNB-19 CNS, 8.66 µM in the assay on HL-60(TB) leukemia and 57.4 µM with SK-MEL-28 melanoma.

Regarding `CCOC(=O)c1c(-c2ccc(OC)cc2)c(C#N)c2c(C#N)c(N)nn2c1N`, the GI50 in the assay with BT-549 breast was 2.65 µM; with HCT-116 colon, 4.35 µM; in the assay with MDA-MB-231 breast, 3.63 µM; in the assay with UACC-62 melanoma, 2.47 µM; in the assay with UACC-257 melanoma, 8.18 µM; in the assay on CCRF-CEM leukemia, 2.46 µM. Also, the GI50 was 2.96 µM in the assay on HS 578T breast, 4.01 µM with SNB-19 CNS, 3.33 µM in the assay on HL-60(TB) leukemia and 5.41 µM with SK-MEL-28 melanoma. In addition, the TGI was 28.1 µM in the assay with BT-549 breast; 19.4 µM in the assay on HCT-116 colon; 23.2 µM in the assay with MDA-MB-231 breast; 15.2 µM in the assay on UACC-62 melanoma; more than 100 µM with UACC-257 melanoma; more than 100 µM in the assay with CCRF-CEM leukemia. In addition, the TGI is 27.6 µM in the assay with HS 578T breast, 22.5 µM in the assay on SNB-19 CNS, more than 100 µM in the assay on HL-60(TB) leukemia and more than 100 µM in the assay on SK-MEL-28 melanoma.

In the case of `O=C(CNS(=O)(=O)Cc1ccccc1)NNc1ccccc1`, the TGI with BT-549 breast was more than 100 µM; in the assay on HCT-116 colon, more than 100 µM; with MDA-MB-231 breast it was more than 100 µM; in the assay with UACC-62 melanoma it was more than 25.6 µM; in the assay with UACC-257 melanoma it was more than 100 µM; in the assay with CCRF-CEM leukemia it was more than 100 µM. The TGI with HS 578T breast, in the assay on SNB-19 CNS, in the assay on HL-60(TB) leukemia and with SK-MEL-28 melanoma was more than 100 µM in each case.
